Earlier results on three molecules are cited in patent US8563582B2, “3-aminocyclopentanecarboxamides as modulators of chemokine receptors” (priority 2004, dated 2013).

Structures are written as SMILES.

Data set [1] concerns HIV.
The target in data set [2] is rhesus macaque CCR5 (Macaca mulatta, UniProt P61813).
Data set [3] has as its system HIV-1.
Data set [4] relates to HIV-1. The note with it: U-87 astroglioma cells.
Data set [5] deals with human CCR5 (Homo sapiens, UniProt P51681).
Sequence of human CCR5 (P51681 whole entry): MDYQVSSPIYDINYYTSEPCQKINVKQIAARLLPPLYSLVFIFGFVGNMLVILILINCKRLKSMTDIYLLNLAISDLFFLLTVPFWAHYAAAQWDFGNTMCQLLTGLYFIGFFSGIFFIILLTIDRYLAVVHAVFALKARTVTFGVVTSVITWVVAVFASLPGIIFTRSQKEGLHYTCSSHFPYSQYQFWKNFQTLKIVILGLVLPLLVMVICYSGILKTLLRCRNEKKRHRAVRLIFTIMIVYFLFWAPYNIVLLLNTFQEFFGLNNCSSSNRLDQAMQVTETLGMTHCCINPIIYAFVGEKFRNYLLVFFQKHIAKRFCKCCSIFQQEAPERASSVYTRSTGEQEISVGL

On to `Cc1ccc(-c2ccc3c(c2)C=C(C(=O)Nc2ccc(C[N+](C)(C)C4CCOCC4)cc2)CCC3)cc1.[Cl-]` [TAK-779], for which the anti-HIV activity entry in data set [1] was “potent but variable”.
Take `CCO/N=C(\c1ccc(Br)cc1)C1CCN(C2(C)CCN(C(=O)c3c(C)cc[n+]([O-])c3C)CC2)CC1` [SCH-C]: the “inhibition of HIV-1 entry via rhesus macaque CCR5” value in data set [2] is on record as “does not”. The “effect on infection of CXCR4-expressing cells” value in data set [3] is on record as “no effect”. In addition, the “inhibition of HIV-1 infection mediated by CCR5” value in data set [4] is recorded as “specifically inhibits”.
For the molecule `Cc1ncnc(C)c1C(=O)N1CCC(C)(N2CCN([C@@H](C)c3ccc(C(F)(F)F)cc3)[C@@H](C)C2)CC1` [AD101], the “inhibition of HIV-1 entry via rhesus macaque CCR5” value in data set [2] is reported as “inhibits”. Also, the “inhibition of entry of HIV-1 via human CCR5” value in data set [5] was “inhibits”.
